Laboratory results from patent US20160193179A1, “Treatment of Cardiovascular Risk in Diabetic Patients” (EVOLVA SA, priority 2012, published 2016).

Assays:
[1] = system: human coronary artery smooth muscle cells; assay: Human coronary artery smooth muscle cell proliferation (WST-1); assay type: cell-based
Procedure: Human coronary artery SMC is cultured in SmGM2 kit medium. At 80% confluence, the SMCs are trypsinized and resuspended in either DMEM supplemented with 2% FCS (“low serum media”), or in SmGM2 kit medium containing 5% FCS, 2 ng/ml FGF, 0.5 ng/ml EGF, 5 μg/ml insulin (“growth factor media”). Subsequently, 5000 cells in 200 μL are added to each well in a 96-well plate and left to adhere overnight. Either vehicle or Compound 3 (50 nM, 500 nM, 5 μM) is added to the wells 1 h before U 46619 at different concentrations (0.1 nM to 10 μM) and incubated for another 48 h. All experiments are repeated 3-5 times for each experimental condition.
Cell proliferation is evaluated using WST-1 reagent according to the manufacturer's instructions. In brief, after replacement of phenol red containing media by 200 μL transparent serum-supplemented DMEM, 10 μL of diluted WST-1 reagent is added to each well at the end of the 48 h incubation period. After 1 h incubation at 37° C., the absorbance of the formazan dye formed is measured at 440 nm using a microplate reader.
All results are expressed as mean±SE. Statistically significant differences are determined by a one-way analysis of variances, followed by Holm-Sidak post hoc test, for multiple comparisons, using Sigma Stat software. A P value of less than 0.05 is considered significant.

[2] = Bioavailability (statement); settings: in vivo
[3] = system: platelet aggregation in PRP of type-2 diabetic patients; assay: Platelet aggregation in citrate-anticoagulated PRP, light transmission aggregometry (LTA); assay type: cell-based, human; settings: for ADP 5 late platelet aggregation (mean ± SD) / ADP 5 max platelet aggregation (mean ± SD): ADP 5 μM; for ADP 5 late platelet aggregation (mean ± SD) / ADP 20 late platelet aggregation (mean ± SD) / U-46619 late platelet aggregation (mean ± SD) / AA late platelet aggregation (mean ± SD) / COLL late platelet aggregation (mean ± SD): late aggregation at 6 minutes; for ADP 5 late platelet aggregation (mean ± SD) / ADP 5 max platelet aggregation (mean ± SD) / ADP 20 late platelet aggregation (mean ± SD) / ADP 20 max platelet aggregation (mean ± SD) / U-46619 late platelet aggregation (mean ± SD) / U-46619 max platelet aggregation (mean ± SD) / AA late platelet aggregation (mean ± SD) / COLL late platelet aggregation (mean ± SD) / COLL max platelet aggregation (mean ± SD): PRP ± 100 nM Compound 3 in vitro; for ADP 5 max platelet aggregation (mean ± SD) / ADP 20 max platelet aggregation (mean ± SD) / U-46619 max platelet aggregation (mean ± SD) / AA max platelet aggregation (mean ± SD) / COLL max platelet aggregation (mean ± SD): maximal aggregation; for ADP 20 late platelet aggregation (mean ± SD) / ADP 20 max platelet aggregation (mean ± SD): ADP 20 μM; for U-46619 late platelet aggregation (mean ± SD) / U-46619 max platelet aggregation (mean ± SD): U-46619 7 uM; for AA late platelet aggregation (mean ± SD) / AA max platelet aggregation (mean ± SD): arachidonic acid 1 mM; for AA max platelet aggregation (mean ± SD): PRP ± 100 nM Compound 3 in vitro 10 min 37°C; for COLL late platelet aggregation (mean ± SD) / COLL max platelet aggregation (mean ± SD): collagen 3 ug/ml
Procedure: Patient population: Ten patients affected by type-2 diabetes mellitus and CAD (coronary artery disease), on chronic daily treatment with 81 mg aspirin (enteric coated acetylsalicylic acid, Cardioaspirin, Bayer, Germany) are switched to clopidogrel (75 mg/day) monotherapy for 7-10 days prior to study. Pharmacodynamic assessments are performed while on aspirin (81 mg) monotherapy and clopidogrel (75 mg) monotherapy.
Blood sampling with 19-gauge needle or larger without the use of tourniquet. The first two ml of blood sampled was discarded. The venous blood samples are drawn into tri-sodium citrate filled tubes (BD Vacutainer 0.109 M. Ref. 363048) for the LTA. All tri-sodium citrate used to anticoagulate a blood sample remains in the plasma phase since it was not taken up by platelets, erythrocytes and leukocytes. Citrate plasma concentration and the resulting free plasma Ca2+ needed for platelet aggregation is directly determined by the individual haematocrit.
Platelet-rich plasma (PRP) is prepared by centrifugation at 120×g for 10 min at room temperature. Autologous platelet-poor plasma (PPP) is prepared by centrifugation at 2300×g for 15 min at room temperature. The PRP platelet count is adjusted to 250.000/ul by the autologous PPP. Stability for the platelet aggregation test is 2 hours at room temperature. Platelet aggregation is performed using LTA [2-5]. Blood is collected in citrated tubes. Citrate concentrations are adjusted according to the individual haematocrit levels according to prior LTA studies using Evolva compound. LTA is assessed using PRP by the turbidimetric method in a 2-channel aggregometer (Chrono-Log 490 Model, Chrono-Log Corp., Havertown) according to the instructions of the manufacturer. Light transmission is adjusted to 0% with the PRP and to 100% for the PPP for each measurement. Curves are recorded for 6 minutes. Platelet aggregation is determined as the maximal percent change in light transmittance from baseline using PPP as a reference as well as late platelet aggregation at 6 minutes. Platelet agonists include U-46619 (7 uM), arachidonic acid (1 mM), collagen (3 ug/ml) and ADP (20 μM and 5 μM). Pharmacodynamic testing is performed following 10 min in vitro incubation at 37° C. of PRP with 100 nM Compound 3 and without 100 nM Compound 3 (placebo).
Total of 10 LTA analysis per patient at each time point; total 2 time points=20 assessments. Table 1 and FIG. 6B compare aspirin vs. aspirin+Compound 3, Table 2 and FIG. 7A compare clopidogrel vs. clopidigrel+Comppound 3, and Table 3 and FIG. 7B compare aspirin+Compound 3 vs. clopidogrel+Comound 3.

| Structure (SMILES) | concentration of maximal response (cell number, WST-1) ([1]; growth factor media) | cell number assessed by WST-1 ([1]; growth factor media, U46619 0.1 nM to 10 μM, 48 h) | absorbance vs. vehicle-treated cells (WST-1) ([1]; growth factor media, U46619 at 0.1 μM and higher) | SMC proliferation ([1]; low serum media (2% FCS)) | solubility (Solubility (statement)) | bioavailability [2] | ADP 5 late platelet aggregation (mean ± SD) [3] | ADP 5 max platelet aggregation (mean ± SD) [3] | ADP 20 late platelet aggregation (mean ± SD) [3] | ADP 20 max platelet aggregation (mean ± SD) [3] | U-46619 late platelet aggregation (mean ± SD) [3] | U-46619 max platelet aggregation (mean ± SD) [3] | AA late platelet aggregation (mean ± SD) [3] | AA max platelet aggregation (mean ± SD) [3] | COLL late platelet aggregation (mean ± SD) [3] | COLL max platelet aggregation (mean ± SD) [3] |
| --- | --- | --- | --- | --- | --- | --- | --- | --- | --- | --- | --- | --- | --- | --- | --- | --- |
| CCCCC[C@H](O)/C=C/[C@@H]1[C@@H](C/C=C\CCCC(=O)O)[C@H]2CO[C@@H]1C2 [Compound U46619] | 1 nM | bell-shaped concentration-dependent increase | does not significantly differ | did not significantly alter |  |  |  |  |  |  |  |  |  |  |  |  |
| O=C(O)CC/C=C\C[C@@H]1CO[C@H](c2ccccc2Cl)O[C@@H]1c1ccccc1O (single isomer, unassigned) [Compound 2] |  |  |  |  | poor solubility | poor |  |  |  |  |  |  |  |  |  |  |
| COC(=O)[C@H](c1ccccc1Cl)N1CCc2sccc2C1 [CLOP, clopidogrel] |  |  |  |  |  |  | 19.7 ± 21.9% | 32.8 ± 17.2% | 44.6 ± 18.9% | 54.8 ± 13.3% | 68.8 ± 13.8% | 71.6 ± 11.6% | 47.6 ± 28.2% | 49.7 ± 28.2% | 70.5 ± 10.5% | 72.6 ± 10.2% |
| CC(=O)Oc1ccccc1C(=O)O [ASA, acetylsalicylic acid] |  |  |  |  |  |  | 46.3 ± 15% | 52.6 ± 12% | 72 ± 6% | 74.3 ± 6% | 74.9 ± 4.6% | 77 ± 5.2% | 8.5 ± 23% | 9.4 ± 22.7% | 59.6 ± 17.2% | 61.4 ± 17.6% |
